Measurements from ChEMBL document CHEMBL4118227, “Hexahydrobenzophenanthridine alkaloids from Corydalis bungeana Turcz. and their anti-inflammatory activity” (Bioorg Med Chem Lett, 2018).

Test system: RAW264.7
Assay: Antiinflammatory activity against mouse RAW264.7 cells assessed as inhibition of LPS induced nitric oxide production preincubated for 2 hrs followed by LPS challenge measured after 24 hrs by Griess reagent based assay
Format: functional, cell-based

Row | Structure (SMILES) | IC50
1 | CC(=O)O[C@H]1Cc2cc3c(cc2[C@H]2N(C)Cc4c(ccc5c4OCO5)[C@@]12C)OCO3 | 23100 nM
2 | CC(=O)O[C@H]1Cc2cc3c(cc2[C@@H]2N(C)Cc4c(ccc5c4OCO5)[C@@]12C)OCO3 | 1000 nM
3 | CN(C)c1ccc(O)c2c1C[C@H]1C[C@H]3[C@H](N(C)C)C(O)=C(C(N)=O)C(=O)[C@@]3(O)C(O)=C1C2=O [MINOCYCLINE] | 31300 nM
4 | COC(=O)C[C@H]1c2c(ccc3c2OCO3)[C@@]2(C)[C@@H](OC(C)=O)Cc3cc4c(cc3[C@@H]2N1C)OCO4 | 2190 nM
5 | CC(=O)O[C@H]1Cc2cc3c(cc2[C@@H]2[C@@]1(C)c1ccc4c(c1C[N@@+]2(C)[O-])OCO4)OCO3 | 2260 nM
6 | COC(=O)C[C@H]1c2c(ccc3c2OCO3)[C@@]2(C)[C@@H](OC(C)=O)Cc3cc4c(cc3[C@H]2N1C)OCO4 | 2030 nM
7 | COc1cc2c(cc1O)C1Cc3ccc4c(c3CN1CC2)OCO4 (stereo not given) [CHEILANTHIFOLINE] | 1880 nM

Results, then the compound that gave them:

Row | IC50 | Structure (SMILES)
8 | 2790 nM | C[C@@]12c3ccc4c(c3C[N@@+](C)([O-])[C@H]1c1cc3c(cc1C[C@@H]2O)OCO3)OCO4
9 | 2510 nM | CN1Cc2c(ccc3c2OCO3)[C@@]2(C)[C@@H](O)Cc3cc4c(cc3[C@@H]12)OCO4
10 | 33800 nM | CC(=O)O[C@H]1Cc2cc3c(cc2[C@H]2[C@@]1(C)c1ccc4c(c1C[N@@+]2(C)[O-])OCO4)OCO3
